Laboratory results taken from PubChem BioAssay (NCI).
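The compound was tested at five concentrations on cells cultured in 96-well plates, with a 48-hour exposure period. At the GI50, growth is halved. TGI marks complete inhibition of growth.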

Columns and labels:
Assay in all cases: NCI anticancer screen, dose series, 48 h
OVCAR-8 ovarian = tested on: OVCAR-8 ovarian
HOP-92 NSCLC = tested on: HOP-92 NSCLC
NCI-H460 lung = tested on: NCI-H460 lung
U251 CNS = tested on: U251 CNS
HT29 colon = tested on: HT29 colon
NCI/ADR-RES ovarian = tested on: NCI/ADR-RES ovarian
A498 renal = tested on: A498 renal
SNB-19 CNS = tested on: SNB-19 CNS
EKVX NSCLC = tested on: EKVX NSCLC
SF-268 CNS = tested on: SF-268 CNS

Structure (SMILES) | TGI (OVCAR-8 ovarian) [µM] | TGI (HOP-92 NSCLC) [µM] | TGI (NCI-H460 lung) [µM] | TGI (U251 CNS) [µM] | TGI (HT29 colon) [µM] | TGI (NCI/ADR-RES ovarian) [µM] | TGI (A498 renal) [µM] | TGI (SNB-19 CNS) [µM] | TGI (EKVX NSCLC) [µM] | TGI (SF-268 CNS) [µM] | GI50 (OVCAR-8 ovarian) [µM] | GI50 (HOP-92 NSCLC) [µM] | GI50 (NCI-H460 lung) [µM] | GI50 (U251 CNS) [µM] | GI50 (HT29 colon) [µM] | GI50 (A498 renal) [µM] | GI50 (SNB-19 CNS) [µM] | GI50 (SF-268 CNS) [µM]
Cc1[nH]c2nccn2c(=O)c1CCO | > 10 | > 10 | > 10 | > 10 | > 10 | > 10 | > 10 | > 10 | > 10 | > 10 | – | – | – | – | – | – | – | –
N#CC1=C(N)N(/N=C/c2ccco2)C(c2ccco2)C1(C#N)C#N (stereo unspecified) | 41.6 | 33.5 | – | 36.1 | 32.2 | 61.2 | 29.9 | 39.2 | 47.3 | 79.7 | – | – | – | – | – | – | – | –
CN(C)CCCn1c(Cn2nc3ccccc3n2)nc2cc(C(F)(F)F)ccc21 | > 100 | 89.9 | 89 | > 100 | 46.2 | > 100 | 41.7 | > 100 | > 100 | > 100 | – | – | – | – | – | – | – | –
COC(=O)C(=O)C(C(=O)OC)C(=O)C(=O)Nc1c(Cl)cc([N+](=O)[O-])cc1Cl (stereo unspecified) | > 100 | > 100 | > 100 | > 100 | > 100 | > 100 | > 100 | > 100 | > 100 | > 100 | – | – | – | – | – | – | – | –
O=c1c2c3c(sc2nc2n1NC=NN2)CCCC3 | 58.2 | 38.5 | 38.3 | 35 | 38.9 | 65.5 | > 89.4 | > 71.5 | 35.9 | 34.8 | – | – | – | – | – | – | – | –
COc1ccc(-c2nnc3n(C)c4ccccc4n3c2=O)cc1 | > 100 | > 100 | > 100 | 84.9 | > 100 | > 100 | > 100 | > 100 | > 100 | > 100 | – | – | – | – | – | – | – | –
COc1ccc2[nH]c3c(c2c1)CC(=O)N1CCC[C@H](C1)CC31OCCCO1 | > 100 | > 100 | > 100 | > 100 | > 100 | > 100 | > 100 | > 100 | > 100 | > 100 | – | – | – | – | – | – | – | –
CCOC(=O)c1nc2cc(Cl)ccc2[nH]c1=O | > 100 | > 100 | > 100 | > 100 | > 100 | > 100 | > 100 | > 100 | > 100 | > 100 | – | – | – | – | – | – | – | –
Cc1cc(O)c2c(c1)C(C1c3cccc(O)c3C(=O)c3c(O)cc(C)cc31)c1cccc(O)c1C2=O (stereo unspecified) | 16.1 | 0.706 | 12.8 | 12.3 | 7.62 | 9.2 | 4.53 | 17.1 | 4.15 | 14 | – | – | – | – | – | – | – | –
COc1ccccc1C(=O)OCC1CCCN2CCCCC12 (stereo unspecified) | 45.8 | > 100 | 52 | 73.1 | 32.2 | > 100 | > 100 | > 100 | > 100 | > 100 | – | – | – | – | – | – | – | –
Fc1ccc(C(OCCN2CCC3CCC(C2)N3C/C=C/c2cccs2)c2ccc(F)cc2)cc1 (stereo unspecified) | 15.8 | 20.3 | 15.4 | 18.8 | 15.4 | 19.7 | 21 | 27.9 | 16.5 | 24.6 | – | – | – | – | – | – | – | –
C(=C/c1nnnn1-c1ccccc1)/Nc1ccccc1 | > 100 | 87.3 | > 100 | > 100 | > 100 | 80.2 | > 100 | 96.8 | > 100 | > 100 | – | – | – | – | – | – | – | –
COc1cc2c[n+](C)c3c4cc(OC)c(OCc5ccccc5)cc4c(OCc4ccccc4)cc3c2cc1OC | 19.6 | 8.51 | > 100 | 12.9 | 15.5 | > 100 | > 100 | 15.2 | > 100 | 17.4 | – | – | – | – | – | – | – | –
O=c1[nH]c(=O)n(C2CC(O)C(CO)O2)cc1Br (stereo unspecified) | > 100 | > 100 | > 100 | > 100 | > 100 | > 100 | > 100 | > 100 | > 100 | > 100 | – | – | – | – | – | – | – | –
O=c1[nH]cnc2c1cnn2Cc1cnnn1COCCO | > 100 | > 100 | > 100 | > 100 | > 100 | > 100 | > 100 | > 100 | > 100 | > 100 | – | – | – | – | – | – | – | –
COc1ccc2c(c1)/c(=C/C#N)c1c3ccccc3[n+](C)n21 | > 100 | 5.89 | 32.9 | 40.8 | 10.6 | > 100 | 13.9 | 51.5 | 16.5 | 30.5 | – | – | – | – | – | – | – | –
CSc1ccc2c(c1)c(CCN)c(C)n2Cc1ccccc1Cl | – | 2.75 | 3.02 | 3.06 | 3.09 | 4.77 | 3.1 | 3.32 | 3.12 | 3.4 | – | – | – | – | – | – | – | –

Structure (SMILES) | TGI (OVCAR-8 ovarian) [µM] | TGI (HOP-92 NSCLC) [µM] | TGI (NCI-H460 lung) [µM] | TGI (U251 CNS) [µM] | TGI (HT29 colon) [µM] | TGI (NCI/ADR-RES ovarian) [µM] | TGI (A498 renal) [µM] | TGI (SNB-19 CNS) [µM] | TGI (EKVX NSCLC) [µM] | TGI (SF-268 CNS) [µM] | GI50 (OVCAR-8 ovarian) [µM] | GI50 (HOP-92 NSCLC) [µM] | GI50 (NCI-H460 lung) [µM] | GI50 (U251 CNS) [µM] | GI50 (HT29 colon) [µM] | GI50 (A498 renal) [µM] | GI50 (SNB-19 CNS) [µM] | GI50 (SF-268 CNS) [µM]
O=C1c2cccnc2-c2nccc3c2c1nc1ccccc13 | 1.61 | 2.54 | 0.606 | 0.703 | 2.5 | 0.673 | 1.03 | 1.28 | 3.21 | 0.834 | – | – | – | – | – | – | – | –
CCCN(CCC)C(=O)c1c(N2CCN(C)CC2)c2cccnc2n2c(C)cnc12 | > 100 | > 100 | > 100 | > 100 | > 100 | > 100 | > 100 | 68.1 | > 100 | > 100 | – | – | – | – | – | – | – | –
COc1cc(/C=C/C(=N\NC(N)=S)c2sc(NNC(C)=O)nc2C)ccc1O | > 100 | > 100 | > 100 | > 100 | > 100 | > 100 | > 100 | > 100 | > 100 | > 100 | – | – | – | – | – | – | – | –
CCSc1nc(N/N=C/c2cccs2)c2cnn(CO)c2n1 | 14.9 | > 100 | 18.6 | 30.1 | 13.4 | 15.9 | 9.53 | 27.1 | 25.6 | 23.7 | – | – | – | – | – | – | – | –
COc1ccc(N2C(=O)/C(=C/c3ccc(N(CCC#N)CCC#N)cc3)N=C2c2ccccc2)cc1 | > 100 | > 100 | > 100 | > 100 | > 100 | > 100 | > 100 | > 100 | > 100 | > 100 | – | – | – | – | – | – | – | –
CCOS(=O)(=O)c1ccc(-c2c3nc(c(-c4ccc(S(=O)(=O)OCC)cc4)c4ccc([nH]4)c(-c4ccc(S(=O)(=O)OCC)cc4)c4nc(c(-c5ccc(S(=O)(=O)OCC)cc5)c5ccc2[nH]5)C=C4)C=C3)cc1 | > 31.6 | > 100 | > 31.6 | > 31.6 | > 100 | > 31.6 | > 31.6 | > 31.6 | > 31.6 | > 31.6 | – | – | – | – | – | – | – | –
CN(C)CC1CCC/C(=C\c2ccc(OC(=O)/C=C/c3ccc(Cl)cc3)cc2)C1=O (stereo unspecified) | 19.3 | 4.34 | 18.1 | 9.97 | 7.12 | 23 | 16.3 | 13.9 | 15.2 | 12.4 | – | – | – | – | – | – | – | –
Cc1ccnc(Nc2[nH]c(C(=O)c3ccc(Cl)cc3)c(N)c2C(=S)Nc2ccccc2)c1 | 34.5 | 35.3 | 27.3 | 33.2 | 28.6 | 11.1 | 36.9 | 64.1 | 44.6 | 59.8 | – | – | – | – | – | – | – | –
C/C(=N\NC(N)=S)c1nc2ncccc2[nH]1 | > 100 | > 100 | > 100 | > 100 | > 100 | > 100 | > 100 | > 100 | > 100 | > 100 | – | – | – | – | – | – | – | –
Cc1cc(C)c2c(n1)S(=O)(=O)N(CCCN1CCN(c3cccc(Cl)c3)CC1)/C(=C(\O)c1ccc(Br)cc1)C2=O | > 100 | 59.6 | 33.2 | > 100 | 98.8 | > 100 | > 100 | 98.4 | 57 | > 100 | – | – | – | – | – | – | – | –
COC(=O)C12Oc3ccc(-c4ccc5c(c4O)C(O)=C4C(=O)CC(C)C(O)C4(C(=O)OC)O5)c(O)c3C(O)=C1C(=O)CC(C)C2O (stereo unspecified) | > 100 | > 22.7 | > 100 | 3.05 | 0.479 | > 100 | 1.81 | > 100 | 1.49 | 1.84 | – | – | – | – | – | – | – | –
COc1cc(O)c(Cc2ccccc2O)c(O)c1C(=O)CCc1ccccc1 | 28.1 | 10.8 | 12.2 | 14.5 | 33.4 | 18.9 | 14.4 | 26.4 | 22.5 | 33.5 | – | – | – | – | – | – | – | –
COc1ccc([I+]c2ccc(OC)cc2)cc1 | > 100 | > 100 | > 100 | > 100 | > 100 | > 100 | > 100 | > 100 | > 100 | > 100 | 3.27 | 3.27 | 5.28 | 7.58 | 5.54 | 5.52 | 20.9 | 12.6
O=C1CC(c2ccccc2)n2c(nc3ccccc32)N1 (stereo unspecified) | > 100 | > 100 | > 100 | > 100 | > 100 | > 100 | > 100 | > 100 | > 100 | > 100 | – | – | – | – | – | – | – | –
COC(=O)c1ccccc1C1CN=NC12Cc1ccc3c(c1C2=O)CCC3 (stereo unspecified) | > 100 | > 100 | > 100 | > 100 | > 100 | > 100 | > 100 | > 100 | > 100 | > 100 | – | – | – | – | – | – | – | –
NC1=Nc2ccccc2Sc2cccc(F)c21 | > 100 | > 100 | > 100 | > 100 | > 100 | > 100 | > 100 | > 100 | > 100 | > 100 | – | – | – | – | – | – | – | –
